In US6737383B1, “Herbicidal oxadiazolidines” (priority 1999, dated 2004):

Columns and labels:
[1] = system: bedstraw; assay: Test B pre/postemergence bedstraw; format: in vivo, Galium aparine; settings: Preemergence; for Bedstraw plant response rating: scale of 0 to 10 where 0 is no effect and 10 is complete control
Procedure, shortened: (§1)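 Response is a visual 0-to-10 score relative to untreated plants, where 0 means no effect and 10 means complete control, taken twelve to sixteen days after application. Treatments went onto soil at planting and onto foliage of 1- to 4-leaf plants, using a surfactant-containing non-phytotoxic solvent.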

[2] = system: blackgrass; assay: Test B pre/postemergence blackgrass; format: in vivo, Alopecurus myosuroides
Procedure, shortened: as §1

[3] = system: surinam grass; assay: Test B pre/postemergence surinam grass; format: in vivo, Brachiaria decumbens
Procedure, shortened: as §1

[4] = system: corn; assay: Test B pre/postemergence corn; format: in vivo, Zea mays
Procedure, shortened: as §1

[5] = system: crabgrass; assay: Test B pre/postemergence crabgrass; format: in vivo, Digitaria sanguinalis
Procedure, shortened: as §1

[6] = system: giant foxtail; assay: Test B pre/postemergence giant foxtail; format: in vivo, Setaria faberii
Procedure, shortened: as §1

[7] = system: morningglory; assay: Test B pre/postemergence morningglory; format: in vivo, Ipomoea hederacea
Procedure, shortened: as §1

[8] = system: rape; assay: Test B pre/postemergence rape; format: in vivo, Brassica napus
Procedure, shortened: as §1

[9] = system: soybean; assay: Test B pre/postemergence soybean; format: in vivo, Glycine max
Procedure, shortened: as §1

[10] = system: velvetleaf; assay: Test B pre/postemergence velvetleaf; format: in vivo, Abutilon theophrasti
Procedure, shortened: as §1

[11] = system: wheat; assay: Test B pre/postemergence wheat; format: in vivo, Triticum aestivum
Procedure, shortened: as §1

[12] = system: wild oat; assay: Test B pre/postemergence wild oat; format: in vivo, Avena fatua
Procedure, shortened: as §1

[13] = system: purple nutsedge; assay: Test B pre/postemergence purple nutsedge; format: in vivo, Cyperus rotundus
Procedure, shortened: as §1

[14] = system: rice; assay: Test B flood test rice; format: in vivo, Oryza sativa; settings: Pre-emergence
Procedure, shortened: (§2)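 Each value is a visual injury score relative to controls, with 10 meaning complete control and 0 no effect. Evaluation took place twelve to sixteen days after the 2-leaf-stage plants were treated and kept in the greenhouse.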

[15] = system: smallflower flatsedge; assay: Test B flood test smallflower flatsedge; format: in vivo, Cyperus difformis; settings: Pre-emergence
Procedure, shortened: as §2

[16] = system: duck salad; assay: Test B flood test duck salad; format: in vivo, Heteranthera limosa; settings: Pre-emergence
Procedure, shortened: as §2

[17] = Rate 1000 g/ha, scale 0 to 10 (0 no effect, 10 complete control)
[18] = Postemergence, Rate 125 g/ha, scale 0 to 10, 0 is no effect, 10 is complete control
[19] = Postemergence, Rate 250 g/ha, scale 0 to 10, 0 is no effect, 10 is complete control
[20] = Postemergence, Rate 1000 g/ha, scale 0 to 10 (0 no effect, 10 complete control)
[21] = Preemergence, Rate 250 g/ha, scale of 0 to 10 where 0 is no effect and 10 is complete control
[22] = Preemergence, Rate 500 g/ha, scale of 0 to 10 where 0 is no effect and 10 is complete control
[23] = Rate 500 g/ha, Postemergence, scale 0 to 10, 0 no effect, 10 complete control
[24] = Rate 1000 g/ha, Preemergence, scale 0 to 10 (0 no effect, 10 complete control)
[25] = Rate 125 g/ha, flood test species, scale 0 to 10 where 0 is no effect and 10 is complete control
[26] = Rate 250 g/ha, flood-test species, scale 0 to 10, 0 is no effect, 10 is complete control
[27] = Rate 500 g/ha, flood test species, scale 0 to 10 (0 no effect, 10 complete control)

## CCOC(=O)C(C)N(C(=O)n1oc(=O)n(C)c1=O)c1ccc(F)cc1 (stereo not drawn) [Compound 365]
[1]; Rate 125 g/ha
  Bedstraw plant response rating (0 to 10 scale): 0
[1]; Rate 250 g/ha
  Bedstraw plant response rating: 0
[1]; Rate 500 g/ha
  Bedstraw plant response rating: 0
[1]; [17]
  Plant response rating, Bedstraw: 0
[2]; [18]
  Plant response rating, Blackgrass: 0
[2]; [19]
  Plant response rating, Blackgrass: 0
[2]; [20]
  Blackgrass plant response rating: 0
[2]; Preemergence, Rate 125 g/ha
  Blackgrass plant response rating (0 to 10 scale): 0
[2]; [21]
  Blackgrass plant response rating: 0
[2]; [22]
  Blackgrass plant response rating: 0
[2]; [23]
  Plant response rating, Blackgrass: 0
[2]; [24]
  Plant response rating, Blackgrass: 0
[3]; [18]
  Plant response rating, B. signalgrass: 0
[3]; [19]
  Plant response rating, B. signalgrass: 0
[3]; [20]
  B. signalgrass plant response rating: 0
[3]; Preemergence, Rate 125 g/ha
  B. signalgrass plant response rating (0 to 10 scale, 0 is no effect, 10 is complete control): 0
[3]; [21]
  B. signalgrass plant response rating: 0
[3]; [22]
  B. signalgrass plant response rating: 0
[3]; [23]
  Plant response rating, B. signalgrass: 0
[3]; [24]
  Plant response rating, B. signalgrass: 0
[4]; [18]
  Plant response rating, Corn: 0
[4]; [19]
  Plant response rating, Corn: 0
[4]; [20]
  Corn plant response rating: 0
[4]; Preemergence, Rate 125 g/ha
  Corn plant response rating (0 to 10 scale): 0
[4]; [21]
  Corn plant response rating: 0
[4]; [22]
  Corn plant response rating: 0
[4]; [23]
  Plant response rating, Corn: 0
[4]; [24]
  Plant response rating, Corn: 0
[5]; [18]
  Plant response rating, Crabgrass: 0
[5]; [19]
  Plant response rating, Crabgrass: 0
[5]; [20]
  Crabgrass plant response rating: 0
[5]; Preemergence, Rate 125 g/ha
  Crabgrass plant response rating (0 to 10 scale): 0
[5]; [21]
  Crabgrass plant response rating: 0
[5]; [22]
  Crabgrass plant response rating: 4
[5]; [23]
  Plant response rating, Crabgrass: 0
[5]; [24]
  Plant response rating, Crabgrass: 8
[6]; [18]
  Plant response rating, Giant foxtail: 0
[6]; [19]
  Plant response rating, Giant foxtail: 0
[6]; [20]
  Giant foxtail plant response rating: 0
[6]; Preemergence, Rate 125 g/ha
  Giant foxtail plant response rating (0 to 10 scale): 0
[6]; [21]
  Giant foxtail plant response rating: 0
[6]; [22]
  Giant foxtail plant response rating: 3
[6]; [23]
  Plant response rating, Giant foxtail: 0
[6]; [24]
  Plant response rating, Giant foxtail: 9
[7]; [18]
  Plant response rating, Morningglory: 0
[7]; [19]
  Plant response rating, Morningglory: 0
[7]; [20]
  Morningglory plant response rating: 0
[7]; Preemergence, Rate 125 g/ha
  Morningglory plant response rating (0 to 10 scale): 0
[7]; [21]
  Morningglory plant response rating: 0
[7]; [22]
  Morningglory plant response rating: 0
[7]; [23]
  Plant response rating, Morningglory: 0
[7]; [24]
  Plant response rating, Morningglory: 0
[8]; [18]
  Plant response rating, Rape: 0
[8]; [19]
  Plant response rating, Rape: 0
[8]; [20]
  Rape plant response rating: 0
[8]; Preemergence, Rate 125 g/ha
  Rape plant response rating (0 to 10 scale): 0
[8]; [21]
  Rape plant response rating: 0
[8]; [22]
  Rape plant response rating: 0
[8]; [23]
  Plant response rating, Rape: 0
[8]; [24]
  Plant response rating, Rape: 0
[9]; [18]
  Plant response rating, Soybean: 0
[9]; [19]
  Plant response rating, Soybean: 2
[9]; [20]
  Soybean plant response rating: 3
[9]; Preemergence, Rate 125 g/ha
  Soybean plant response rating (0 to 10 scale): 0
[9]; [21]
  Soybean plant response rating: 0
[9]; [22]
  Soybean plant response rating: 0
[9]; [23]
  Plant response rating, Soybean: 2
[9]; [24]
  Plant response rating, Soybean: 0
[10]; [18]
  Plant response rating, Velvetleaf: 0
[10]; [19]
  Plant response rating, Velvetleaf: 0
[10]; [20]
  Velvetleaf plant response rating: 0
[10]; Preemergence, Rate 125 g/ha
  Velvetleaf plant response rating (0 to 10 scale): 0
[10]; [21]
  Velvetleaf plant response rating: 0
[10]; [22]
  Velvetleaf plant response rating: 0
[10]; [23]
  Plant response rating, Velvetleaf: 0
[10]; [24]
  Plant response rating, Velvetleaf: 0
[11]; [18]
  Plant response rating, Wheat: 0
[11]; [19]
  Plant response rating, Wheat: 0
[11]; [20]
  Wheat plant response rating: 0
[11]; Preemergence, Rate 125 g/ha
  Wheat plant response rating (0 to 10 scale): 0
[11]; [21]
  Wheat plant response rating: 0
[11]; [22]
  Wheat plant response rating: 0
[11]; [23]
  Plant response rating, Wheat: 0
[11]; [24]
  Plant response rating, Wheat: 0
[12]; [18]
  Plant response rating, Wild oats: 0
[12]; [19]
  Plant response rating, Wild oats: 0
[12]; [20]
  Wild oats plant response rating: 0
[12]; Preemergence, Rate 125 g/ha
  Wild oats plant response rating (0 to 10 scale): 0
[12]; [21]
  Wild oats plant response rating: 0
[12]; [22]
  Wild oats plant response rating: 0
[12]; [23]
  Plant response rating, Wild oats: 0
[12]; [24]
  Plant response rating, Wild oats: 0
[13]; [18]
  Plant response rating, Nutsedge: 0
[13]; [19]
  Plant response rating, Nutsedge: 0
[13]; [20]
  Nutsedge plant response rating: 0
[13]; [21]
  Nutsedge plant response rating: 0
[13]; [22]
  Nutsedge plant response rating: 0
[13]; [23]
  Plant response rating, Nutsedge: 0
[13]; [24]
  Plant response rating, Nutsedge: 0
[14]; [17]
  Rice plant response rating: 0
[14]; [25]
  Rice plant response rating: 0
[14]; [26]
  Rice plant response rating: 0
[14]; [27]
  Rice plant response rating: 0
[15]; [17]
  S. Flatsedge plant response rating: 0
[15]; [25]
  S. Flatsedge plant response rating: 0
[15]; [26]
  S. Flatsedge plant response rating: 0
[15]; [27]
  S. Flatsedge plant response rating: 0
[16]; [17]
  Ducksalad plant response rating: 0
[16]; [25]
  Ducksalad plant response rating: 0
[16]; [26]
  Ducksalad plant response rating: 0
[16]; [27]
  Ducksalad plant response rating: 0
